Data as given in PubChem BioAssay AID1259407 (Chemical Carcinogenesis Research Information System (CCRIS), 2018).
Activity calls are given as the source filed them. The rule behind the calls is not given here.

Tested on: CCRIS mutagenicity, Ames/micronucleus/aberration tests
Assay: CCRIS mutagenicity studies
[1] = Test System: AMES SALMONELLA TYPHIMURIUM, Strain/Indicator: TA100, Metabolic Activation: NONE, Method: STANDARD PLATE

| Structure (SMILES) | mutagenic call (Test System: AMES SALMONELLA TYPHIMURIUM, Strain/Indicator: TA100, Metabolic Activation: NONE, Method: PREINCUBATION) | mutagenic call [1] | mutagenic call (Test System: AMES SALMONELLA TYPHIMURIUM, Strain/Indicator: TA100, Metabolic Activation: RAT, KIDNEY, S-9, AROCLOR 1254, Method: STANDARD PLATE) | mutagenic call (Test System: AMES SALMONELLA TYPHIMURIUM, Strain/Indicator: TA2638, Metabolic Activation: NONE, Method: PREINCUBATION) | mutagenic call (Test System: AMES SALMONELLA TYPHIMURIUM, Strain/Indicator: TA100, Metabolic Activation: S-9 MIX, Method: STANDARD PLATE) | mutagenic call (Test System: Ames Salmonella typhimurium, Strain/Indicator: TA97, Metabolic Activation: None, Method: Suspension) | mutagenic call (Test System: Ames Salmonella typhimurium, Strain/Indicator: TA97, Metabolic Activation: Rat, Liver, S-9, Aroclor 1254 (10% v/v), Method: Preincubation) | mutagenic call (Test System: Ames Salmonella typhimurium, Strain/Indicator: TA98, Metabolic Activation: None, Method: Preincubation) | mutagenic call (Test System: Ames Salmonella typhimurium, Strain/Indicator: TA98, Metabolic Activation: Rat, Liver, S-9, Aroclor 1254 (10% v/v), Method: Suspension) | mutagenic call (Test System: Ames Salmonella typhimurium, Strain/Indicator: TA100, Metabolic Activation: None, Method: Suspension) | mutagenic call (Test System: Ames Salmonella typhimurium, Strain/Indicator: TA100, Metabolic Activation: Rat, Liver, S-9, Aroclor 1254 (10% v/v), Method: Suspension) | mutagenic call (Test System: AMES SALMONELLA TYPHIMURIUM, Strain/Indicator: TA98, Metabolic Activation: NONE, Method: STANDARD PLATE) | mutagenic call (Test System: AMES SALMONELLA TYPHIMURIUM, Strain/Indicator: TA1535, Metabolic Activation: NONE, Method: STANDARD PLATE) | mutagenic call (Test System: AMES SALMONELLA TYPHIMURIUM, Strain/Indicator: TA1536, Metabolic Activation: NONE, Method: STANDARD PLATE) | mutagenic call (Test System: AMES SALMONELLA TYPHIMURIUM, Strain/Indicator: TA1537, Metabolic Activation: NONE, Method: STANDARD PLATE) | mutagenic call (Test System: AMES SALMONELLA TYPHIMURIUM, Strain/Indicator: TA1538, Metabolic Activation: NONE, Method: STANDARD PLATE) |
| --- | --- | --- | --- | --- | --- | --- | --- | --- | --- | --- | --- | --- | --- | --- | --- | --- |
| N[C@@H](CS/C(Cl)=C(\Cl)C(Cl)=C(Cl)Cl)C(=O)O | active; positive | active; positive | active; positive | active; positive |  |  |  |  |  |  |  |  |  |  |  |  |
| CCCCOCN(C(=O)CCl)c1c(CC)cccc1CC |  | inactive; negative |  |  | active; positive | inactive; negative | inactive; negative | inactive; negative | inactive; negative | inactive; negative | inactive; negative |  |  |  |  |  |
| ClCCNCCCNc1c2ccccc2nc2c1ccc1cccnc12 |  | active; positive |  |  |  |  |  |  |  |  |  | active; positive | inactive; negative | active; positive | active; positive | active; positive |
